Source: publication PMC5404925, “Variation in olfactory neuron repertoires is genetically controlled and environmentally modulated” (eLife, 2017)

How the values were obtained:
Olfr347 = target: T1, Olfr347 (Mus musculus, UniProt Q8VGK2); experiment: CRE-luciferase reporter dose-response (Dual-Glo); format: cell-based; conditions: agonist; 1 nM to 1 mM, 4 h stimulation; RTP1S and M3-R co-expressed; Hana3A cells
T1 construct: gene Or1j18; full-length OR, probably N-terminal RHO tag (tag-only control), in HEK293T-derived Hana3A cells with RTP1S and M3-R
T1 sequence (Q8VGK2 1-312): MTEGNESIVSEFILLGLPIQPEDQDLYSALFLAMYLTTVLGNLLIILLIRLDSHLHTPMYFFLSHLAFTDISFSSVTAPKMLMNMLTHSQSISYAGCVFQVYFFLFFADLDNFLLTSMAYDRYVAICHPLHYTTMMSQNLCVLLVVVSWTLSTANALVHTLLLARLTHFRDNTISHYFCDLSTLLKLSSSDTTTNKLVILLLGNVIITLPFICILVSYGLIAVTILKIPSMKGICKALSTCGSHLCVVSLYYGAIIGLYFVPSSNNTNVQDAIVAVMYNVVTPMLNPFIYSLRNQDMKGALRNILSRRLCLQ

Olfr538 = target: T2, Olfr538 (Mus musculus, UniProt Q7TRT5); experiment: CRE-luciferase reporter dose-response (Dual-Glo); format: cell-based; conditions: agonist; 1 nM to 1 mM, 4 h stimulation; RTP1S and M3-R co-expressed; Hana3A cells
T2 construct: gene Or13a24; full-length OR, probably N-terminal RHO tag (tag-only control), in HEK293T-derived Hana3A cells with RTP1S and M3-R
T2 sequence (Q7TRT5 1-310): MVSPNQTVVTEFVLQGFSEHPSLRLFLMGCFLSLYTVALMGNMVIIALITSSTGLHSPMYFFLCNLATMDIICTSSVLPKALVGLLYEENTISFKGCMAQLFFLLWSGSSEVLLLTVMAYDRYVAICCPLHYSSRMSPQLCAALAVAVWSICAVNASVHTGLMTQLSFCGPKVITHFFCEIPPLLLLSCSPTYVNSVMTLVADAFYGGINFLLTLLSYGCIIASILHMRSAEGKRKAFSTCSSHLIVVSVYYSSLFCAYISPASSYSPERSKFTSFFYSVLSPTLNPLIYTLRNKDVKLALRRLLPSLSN

With C=C(C)[C@@H]1CC=C(C)C(=O)C1 [(R)-carvone] the “CRE-luciferase reporter dose-response (Dual-Glo)” value (Olfr347) was “Dose-response curve for HEK293 cells expressing Olfr347 (black) challenged with increasing concentrations of (R)-carvone” and the “CRE-luciferase reporter dose-response (Dual-Glo)” value (Olfr538) was “Olfr538 displayed a dose-dependent response to (R)-carvone”.
